Results on 1 compound are retold here after PubChem BioAssay AID564 (University of Pittsburgh Molecular Library Screening Center, 2006).

This experiment has as its target Dual specificity protein phosphatase 6 (Rattus norvegicus) (UniProt Q64346). In words: catalase influence on rat DUSP6 inhibition – biochemical, catalase added, probe assessment, dose response (AID 564). As to conditions: recombinant MKP-3 phosphatase, fluorescence, with catalase.

Calls of active or inactive are those of the source. How the calls were made is not given here.

Chain of Dual specificity protein phosphatase 6 (Rattus norvegicus) (Q64346 whole entry, looked up): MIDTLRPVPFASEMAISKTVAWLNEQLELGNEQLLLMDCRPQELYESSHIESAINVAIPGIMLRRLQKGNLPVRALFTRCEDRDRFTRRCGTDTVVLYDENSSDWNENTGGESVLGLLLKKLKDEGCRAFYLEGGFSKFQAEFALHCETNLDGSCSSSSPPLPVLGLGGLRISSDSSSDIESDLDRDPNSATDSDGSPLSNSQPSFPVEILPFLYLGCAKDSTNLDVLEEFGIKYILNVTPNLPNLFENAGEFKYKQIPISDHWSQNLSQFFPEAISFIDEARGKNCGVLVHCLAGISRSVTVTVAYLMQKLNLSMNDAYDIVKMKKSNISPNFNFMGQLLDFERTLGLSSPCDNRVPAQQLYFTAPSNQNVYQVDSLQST

As to `O=C1C(C2=C(O)c3ccccc3C2=O)=Nc2ccccc21`, the IC50 was > 50 µM (inactive).

In general, IC50 refers to the point on the concentration scale where inhibition reaches its midpoint.
